Here are results for two molecules from patent publication US12439944B2, “3-hydroxybutyrate compounds for use in reducing liver fat” (TDeltaS Limited, priority 2017, dated 2025).

Series [1] has as its system liver fat. Nature of the series: Reduction of liver fat, general statement. It counts as in vivo.
A short description of series [2]: Blood (R)-3-hydroxybutyrate level after oral administration. It counts as in vivo. As to conditions: for circulating levels of (R)-3-hydroxybutyrate in the blood: general statement; for uptake in the gut: upon consumption of a drink. The procedure: At a dose of 1 g/kg of body weight of the subject, the blood (R)-3-hydroxybutyrate concentration is suitably at least 4 mM, preferably 5 mM. Upon oral administration of monoester of 1.5 g/kg of body weight of the subject, the blood (R)-3-hydroxybutyrate concentration is suitably at least 7 mM, preferably at least 8 mM, especially at least 9 mM. A dosing regime comprises multiple drinks consumed separately.
Blood levels of (R)-3-hydroxybutyrate may be determined by commercially available testing kits, for example, (R)-3-hydroxybutyrate can be measured on whole blood using a handheld monitor and reagent strips (Precision Xtra, Abbott Diabetes Care, UK).

Series [3] can be described thus: Body weight change after five-day ketone ester drink regime. The settings on record: 393 mg/kg body weight 3 times per day for 5 days. In kind it is in vivo, human. The procedure: Three obese subjects (BMI 33±3 kg/m^2) and seven lean subjects (BMI 23±2 kg/m^2), matched for age, gender, diabetes duration, treatment and HBA1c, underwent a ^1H-MRS scan for quantification of liver steatosis. All subjects were weighed and underwent a treatment regime for five days in which each subject consumed three drinks per day containing 0.393 g/kg body weight of (R)-3-hydroxybutyrate-R-1,3-butanediol monoester, made up to a final volume of 3.3 ml/kg body weight. […] The subjects were not asked to change their normal diet, but did keep diet diaries. Subjects lost 1.3 kg over the five-day period, irrespective of their starting body weight. The weight loss in 7 lean subjects (FIG. 1a) and 3 obese subjects (FIG. 1b) was the same, 1.3 kg, after drinking 393 mg/kg body weight (R)-3-hydroxybutyrate-(R)-1,3 butanediol monoester (ΔG®) 3 times per day for 5 days.

Series [4] relates to liver fat. Nature of the series: 1H Magnetic Resonance Spectroscopy (MRS) of liver, quantification of liver fat. It counts as in vivo, human. The settings on record: for liver fat (hepatic triglyceride relative to water): lean subjects; for liver triglyceride level: obese subjects. The procedure: Three obese subjects (BMI 33±3 kg/m^2) and seven lean subjects (BMI 23±2 kg/m^2), matched for age, gender, diabetes duration, treatment and HBA1c, underwent a ^1H-MRS scan for quantification of liver steatosis. All subjects were weighed and underwent a treatment regime for five days in which each subject consumed three drinks per day containing 0.393 g/kg body weight of (R)-3-hydroxybutyrate-R-1,3-butanediol monoester, made up to a final volume of 3.3 ml/kg body weight. […] Liver ^1H-MRS was performed on each of the subjects at the beginning and end of the 5 days to determine the change in liver fat. The ^1H-MRS measurements were carried out on a 3 T Siemens Tim Trio using a whole-body coil and 6-channel anterior plus 24-channel posterior phased-array coils for signal receiving. To obtain hepatic ^1H-MRS, an 8-ml voxel (2×2×2) was positioned in the liver, avoiding gross vascular, biliary structures and adipose tissue depots. Spectra, with and without water suppression, were obtained to calculate hepatic triglyceride content as a percentage relative to water (triglyceride/water×100). A calibration pulse sequence was implemented to evaluate the optimal water suppression pulse scaling factor. Individual coil signals were combined within Matlab using specifically written modules. The water-suppressed scans were constructively averaged, including frequency correction. Spectra were quantified using the Advanced Method of Accurate, Robust and Efficient Spectroscopic ([…]) fitting algorithm. Metabolite peaks (including lipid/triglycerides) were analyzed and prior knowledge was used for all peak locations by using soft constraints. All peaks were fitted using Lorentzian lineshapes.

The mark [5] stands for this setting: end of the 5 days, 393 mg/kg 3 times per day.

With `C[C@@H](O)CCOC(=O)C[C@@H](C)O` [(R)-3-hydroxybutyrate (R)-1,3-butanediol monoester], in series [1], the “effect on liver fat” value is “reduce liver fat”. For the same molecule, the “period of raised (R)-3-hydroxybutyrate concentrations” value in series [2] (compared with ketone salts) is listed as “longer period than ketone salts”. Further, in series [2], the “circulating levels of (R)-3-hydroxybutyrate in the blood” value is reported as “high circulating levels” and the “uptake in the gut” value is “surprisingly high level of uptake in the gut”. In series [3] (3 obese subjects), the weight loss is 1.3 kg. In series [3] (7 lean subjects), this molecule came in with a weight loss of 1.3 kg. In addition, the “change in liver fat” value in series [4] (7 lean subjects, 393 mg/kg 3 times per day for 5 days) is recorded as “no loss of liver fat”. Also, in series [4] (beginning of the 5 days), the “liver fat (hepatic triglyceride relative to water)” value stood at 2.3% and the liver triglyceride level came out at 17.5%. Further, in series [4] (setting [5]), the “liver fat (hepatic triglyceride relative to water)” value is on record as 2.5% and the liver triglyceride level was 14.1%.
On to “(R)-3-hydroxybutyrate-glycerol partial ester”, for which, in series [1], the “effect on liver fat” value is “reduce liver fat”. Also, in series [2], the “circulating levels of (R)-3-hydroxybutyrate in the blood” value is “high circulating levels” and the “uptake in the gut” value is given as “surprisingly high level of uptake in the gut”.
